In the data set the test system is rodent lifetime carcinogenesis bioassay, tumor incidence TD50. Nature of the data set: chronic cancer bioassays in animals – CPDB, compiled studies (AID 1745844).

For seven molecules, carcinogen call and TD50 results are on record in PubChem BioAssay AID1745844 (Carcinogenic Potency Database (CPDB), 2022).

The term TD50 denotes the 50% point of the dose-response relation for the toxic effect studied.

Calls of active or inactive are those of the source. No rule for the calls is given here. Numbered stars: 1 amine (or outer) side, 2 acyl side, 3 side chain; on linkers, the order of the positions; unused ones are H or OH. Bridge positions count the residues as written; N and C are the ends. Square brackets hold non-standard residues; d marks the D form. Peptide text beside a SMILES is read from it. I, II: the chains in the order shown. Actinocin(1to9) = Cc1c2oc3c(C)ccc(C(=O)[*:2])c3nc-2c(C(=O)[*:1])c(N)c1=O; NMeV = CN[C@H](C(=O)O)C(C)C; Sar = CNCC(=O)O

As for `CC1=C(C(=O)OCCN(Cc2ccccc2)c2ccccc2)C(c2cccc([N+](=O)[O-])c2)C(P2(=O)OCC(C)(C)CO2)=C(C)N1` (stereo not drawn), the carcinogen call was “negative (inactive)” (mouse, strain B6C3F1, females, in feed, site: any site (literature study), lesion: several types, types named in the paper, dosed 104 weeks, study length 104 weeks); “negative (inactive)” (mouse, strain B6C3F1, females, in feed, site: lung, lesion: alveolar/bronchiolar adenoma, dosed 104 weeks, study length 104 weeks); “negative (inactive)” (mouse, strain B6C3F1, males, in feed, site: any site (literature study), lesion: several types, types named in the paper, dosed 104 weeks, study length 104 weeks); “negative (inactive)” (mouse, strain B6C3F1, males, in feed, site: liver, lesion: hepatocellular adenoma, dosed 104 weeks, study length 104 weeks); “negative (inactive)” (mouse, strain B6C3F1, males, in feed, site: liver, lesion: hepatocellular carcinoma, dosed 104 weeks, study length 104 weeks); “negative (inactive)” (mouse, strain B6C3F1, males, in feed, site: lung, lesion: alveolar/bronchiolar adenoma, dosed 104 weeks, study length 104 weeks). Also, the carcinogen call (mouse, strain B6C3F1, males, in feed, site: lung, lesion: alveolar/bronchiolar carcinoma, dosed 104 weeks, study length 104 weeks) was “negative (inactive)”; the carcinogen call (rat, strain F344/DuCrj, females, in feed, site: liver, lesion: hepatocellular adenoma, dosed 104 weeks, study length 104 weeks) was “negative (inactive)”; the carcinogen call (rat, strain F344/DuCrj, males, in feed, site: any site (literature study), lesion: several types, types named in the paper, dosed 104 weeks, study length 104 weeks) was “negative (inactive)”. For the same molecule, the TD50 was 11500 mg/kg/day (inactive) (mouse, strain B6C3F1, females, in feed, site: liver, lesion: hepatocellular adenoma, dosed 104 weeks, study length 104 weeks); 7430 mg/kg/day (inactive) (mouse, strain B6C3F1, females, in feed, site: liver, lesion: hepatocellular carcinoma, dosed 104 weeks, study length 104 weeks); 12300 mg/kg/day (inactive) (mouse, strain B6C3F1, females, in feed, site: lung, lesion: alveolar/bronchiolar carcinoma, dosed 104 weeks, study length 104 weeks); 276 mg/kg/day (inactive) (mouse, strain B6C3F1, females, in feed, site: lymph node, lesion: malignant lymphoma, dosed 104 weeks, study length 104 weeks); 244 mg/kg/day (inactive) (rat, strain F344/DuCrj, females, in feed, site: any site (literature study), lesion: several types, types named in the paper, dosed 104 weeks, study length 104 weeks); 2310 mg/kg/day (inactive) (rat, strain F344/DuCrj, males, in feed, site: liver, lesion: several types, types named in the paper, dosed 104 weeks, study length 104 weeks).

As to `CCOc1ccc(NC(=O)CC(C)O)cc1` (stereo not drawn), the TD50 is, setting by setting: (mouse, strain B6C3F1, females, in feed, site: liver, lesion: hepatocellular adenoma, dosed 72 weeks, study length 84 weeks) 4000 mg/kg/day; (mouse, strain B6C3F1, females, in feed, site: lung, lesion: alveolar-cell tumor, dosed 72 weeks, study length 84 weeks) 11300 mg/kg/day; (mouse, strain B6C3F1, males, in feed, site: all sites, lesion: lymphoma and leukemia, combined, dosed 70 weeks, study length 84 weeks) 2740 mg/kg/day; (mouse, strain B6C3F1, males, in feed, site: kidney, lesion: renal-cell adenoma, dosed 70 weeks, study length 84 weeks) 5580 mg/kg/day; (mouse, strain B6C3F1, males, in feed, site: kidney, lesion: renal-cell carcinoma, dosed 70 weeks, study length 84 weeks) 5530 mg/kg/day; (mouse, strain B6C3F1, males, in feed, site: liver, lesion: hemangioma, dosed 70 weeks, study length 84 weeks) 406000 mg/kg/day. The TD50 reads like this: (mouse, strain B6C3F1, males, in feed, site: liver, lesion: hepatocellular adenoma, dosed 70 weeks, study length 84 weeks) 17500 mg/kg/day; (mouse, strain B6C3F1, males, in feed, site: lung, lesion: alveolar-cell tumor, dosed 70 weeks, study length 84 weeks) 5280 mg/kg/day; (mouse, strain B6C3F1, males, in feed, site: urinary bladder, lesion: papilloma, dosed 70 weeks, study length 84 weeks) 46400 mg/kg/day.

On to `CC[C@H](C)[C@@H]1NC(=O)[C@@H](NC(=O)c2c3nc4c(C(=O)N[C@@H]5C(=O)N[C@@H](C(C)C)C(=O)N6CCC[C@H]6C(=O)N(C)CC(=O)N(C)[C@@H](C(C)C)C(=O)O[C@@H]5C)ccc(C)c4oc-3c(C)c(=O)c2N)[C@@H](C)OC(=O)[C@H](C(C)C)N(C)C(=O)CN(C)C(=O)[C@@H]2CCCN2C1=O` (I: TIP[Sar][NMeV] / II: TVP[Sar][NMeV]; ester I:1-I:C, II:1-II:C; linker I:N-II:N via Actinocin(1to9)), for which the TD50 came out at 2.23 mg/kg/day (rat, strain BR 46, males, i.v., site: any site (literature study), lesion: benign tumor, dosed 52 weeks, study length 104 weeks); 10.8 mg/kg/day (rat, strain BR 46, males, i.v., site: any site (literature study), lesion: malignant tumor, dosed 52 weeks, study length 104 weeks); 1.68 mg/kg/day (rat, strain BR 46, males, i.v., site: any site (literature study), lesion: several types, types named in the paper, dosed 52 weeks, study length 104 weeks).

As to `CN(N=O)C(=O)c1c(N(C)N=O)ncn1C`, for the setting “rat, strain BD IX, both sexes, by gavage, site: forestomach, lesion: squamous-cell carcinoma, dosed 41 weeks, study length 52 weeks”, the TD50 was 0.183 mg/kg/day.

For the molecule `[O]=[Cr](=[O])([OH])[O][Cr](=[O])(=[O])[OH]`, the TD50 is 0.875 mg/kg/day (rat, strain Wistar, males, inhaled, site: any site (literature study), lesion: several types, types named in the paper, dosed 78 weeks, study length 130 weeks); 14.4 mg/kg/day (rat, strain Wistar, males, inhaled, site: liver, lesion: malignant tumor, dosed 78 weeks, study length 130 weeks); 7.07 mg/kg/day (rat, strain Wistar, males, inhaled, site: lung, lesion: adenocarcinoma, dosed 78 weeks, study length 130 weeks); 14.4 mg/kg/day (rat, strain Wistar, males, inhaled, site: lung, lesion: adenoma, dosed 78 weeks, study length 130 weeks); 4.64 mg/kg/day (rat, strain Wistar, males, inhaled, site: lung, lesion: several types, types named in the paper, dosed 78 weeks, study length 130 weeks); 14.4 mg/kg/day (rat, strain Wistar, males, inhaled, site: pharynx, lesion: squamous-cell carcinoma, dosed 78 weeks, study length 130 weeks).

In the case of `CCBr`, the TD50 runs as follows: (mouse, strain B6C3F1, females, inhaled, site: any site (literature study), lesion: several types, types named in the paper, dosed 103 weeks, study length 105 weeks) 571 mg/kg/day; (mouse, strain B6C3F1, females, inhaled, site: lung, lesion: alveolar/bronchiolar adenoma + alveolar/bronchiolar carcinoma, dosed 103 weeks, study length 105 weeks) 5810 mg/kg/day; (mouse, strain B6C3F1, females, inhaled, site: uterus, lesion: adenocarcinoma, NOS + adenoma, NOS + squamous-cell carcinoma, dosed 103 weeks, study length 105 weeks) 535 mg/kg/day; (mouse, strain B6C3F1, females, inhaled, site: uterus, lesion: adenocarcinoma, NOS + adenoma, NOS, dosed 103 weeks, study length 105 weeks) 596 mg/kg/day; (mouse, strain B6C3F1, females, inhaled, site: uterus, lesion: adenocarcinoma, NOS + squamous-cell carcinoma, dosed 103 weeks, study length 105 weeks) 681 mg/kg/day; (mouse, strain B6C3F1, females, inhaled, site: uterus, lesion: adenocarcinoma, NOS, dosed 103 weeks, study length 105 weeks) 822 mg/kg/day. The TD50 came out at 2610 mg/kg/day (mouse, strain B6C3F1, females, inhaled, site: uterus, lesion: adenoma, NOS, dosed 103 weeks, study length 105 weeks); 4440 mg/kg/day (mouse, strain B6C3F1, females, inhaled, site: uterus, lesion: squamous-cell carcinoma, dosed 103 weeks, study length 105 weeks); 1630 mg/kg/day (mouse, strain B6C3F1, males, inhaled, site: any site (literature study), lesion: several types, types named in the paper, dosed 104 weeks, study length 105 weeks); 3670 mg/kg/day (mouse, strain B6C3F1, males, inhaled, site: liver, lesion: hepatocellular adenoma + hepatocellular carcinoma + neoplastic nodule, dosed 104 weeks, study length 105 weeks); 1100 mg/kg/day (mouse, strain B6C3F1, males, inhaled, site: lung, lesion: alveolar/bronchiolar adenoma + alveolar/bronchiolar carcinoma, dosed 104 weeks, study length 105 weeks); 2390 mg/kg/day (mouse, strain B6C3F1, males, inhaled, site: lung, lesion: alveolar/bronchiolar carcinoma, dosed 104 weeks, study length 105 weeks). The TD50 reads like this: (rat, strain Fischer 344, females, inhaled, site: brain, lesion: glioma, NOS, dosed 104 weeks, study length 106 weeks) 1020 mg/kg/day; (rat, strain Fischer 344, females, inhaled, site: liver, lesion: hepatocellular adenoma + hepatocellular carcinoma + neoplastic nodule, dosed 104 weeks, study length 106 weeks) 670 mg/kg/day; (rat, strain Fischer 344, females, inhaled, site: lung, lesion: alveolar/bronchiolar adenoma, dosed 104 weeks, study length 106 weeks) 1280 mg/kg/day; (rat, strain Fischer 344, males, inhaled, site: adrenal medulla + brain + lung, lesion: pheochromocytoma + pheochromocytoma, malignant + astrocytoma + granulosa-cell tumor, NOS + glioma, NOS + oligodendroglioma + alveola, dosed 104 weeks, study length 106 weeks) 151 mg/kg/day; (rat, strain Fischer 344, males, inhaled, site: adrenal medulla, lesion: pheochromocytoma + pheochromocytoma, malignant, dosed 104 weeks, study length 106 weeks) 149 mg/kg/day; (rat, strain Fischer 344, males, inhaled, site: brain, lesion: granulosa-cell tumor, NOS, dosed 104 weeks, study length 106 weeks) 80700 mg/kg/day. For the same molecule, the TD50 is, setting by setting: (rat, strain Fischer 344, males, inhaled, site: liver, lesion: hepatocellular adenoma + hepatocellular carcinoma + neoplastic nodule, dosed 104 weeks, study length 106 weeks) 2280 mg/kg/day; (rat, strain Fischer 344, males, inhaled, site: liver, lesion: neoplastic nodule, dosed 104 weeks, study length 106 weeks) 1140 mg/kg/day; (rat, strain Fischer 344, males, inhaled, site: lung, lesion: alveolar/bronchiolar adenoma + alveolar/bronchiolar carcinoma, dosed 104 weeks, study length 106 weeks) 582 mg/kg/day. Also, the carcinogen call (rat, strain Fischer 344, males, inhaled, site: brain, lesion: astrocytoma + glioma, NOS + oligodendroglioma, dosed 104 weeks, study length 106 weeks) is “p”.

Regarding `C=C1CC[C@H](O)C/C1=C/C=C1\CCC[C@]2(C)[C@@H]([C@H](C)CC[C@@H](O)C(C)(C)O)CC[C@@H]12`, under “rat, strain Slc-Wistar, males, in feed, site: adrenal medulla, lesion: pheochromocytoma, dosed 57 weeks, study length 57 weeks”, the TD50 amounted to 0.803 mg/kg/day. Besides, the carcinogen call (rat, strain Slc-Wistar, males, in feed, site: stomach, glandular, lesion: adenocarcinoma, dosed 57 weeks, study length 57 weeks) is “negative (inactive)”.
